Measured values: patent US8415342B2, “Besifloxacin ophthalmic composition for the treatment or control of infection” (Bausch & Lomb Incorporated, priority 2008, dated 2013)
Converted amounts (≈) assume the structure as drawn. Where two headings read alike, the source gives them in different places.

Legend:
Type in all cases: cell-based
[1] = tested on: Staphylococcus haemolyticus; test: MIC, CLSI broth microdilution, clinical isolates; details: Staphylococcus haemolyticus (N = 101)
[2] = tested on: Lancefield group C, F, G streptococci; test: MIC, CLSI broth microdilution, clinical isolates; details: G streptococci (N = 50)
Streptococcus pneumoniae = test: MIC, CLSI broth microdilution, clinical isolates
Staphylococcus aureus = test: MIC, CLSI broth microdilution, clinical isolates; details: for MIC50 / MIC90: Staphylococcus aureus
Streptococcus pyogenes = test: MIC, CLSI broth microdilution, clinical isolates; details: Streptococcus pyogenes (N = 101)
Morganella morganii = test: MIC, CLSI broth microdilution, clinical isolates; details: Morganella morganii (N = 51)
Legionella pneumophila = test: microbe, parasite or virus in culture
[3] = tested on: Staphylococcus epidermidis; test: MIC, CLSI broth microdilution, clinical isolates; details: for MIC50: Staphylococcus epidermidis
Haemophilus influenzae = test: MIC, CLSI broth microdilution, clinical isolates; details: for MIC50 / MIC90: Haemophilus influenzae
Citrobacter koseri = test: MIC, CLSI broth microdilution, clinical isolates; details: Citrobacter koseri (N = 100)
Streptococcus agalactiae = test: MIC, CLSI broth microdilution, clinical isolates; details: Streptococcus agalactiae (N = 100)
[4] = tested on: Staphylococcus saprophyticus; test: MIC, CLSI broth microdilution, clinical isolates; details: Staphylococcus saprophyticus (N = 101)
[5] = tested on: Staphylococcus lugdunensis; test: MIC, CLSI broth microdilution, clinical isolates; details: Staphylococcus lugdunensis (N = 15)
Staphylococcus hominis = test: MIC, CLSI broth microdilution, clinical isolates; details: Staphylococcus hominis (N = 50)
Moraxella catarrhalis = test: MIC, CLSI broth microdilution, clinical isolates; details: Moraxella catarrhalis (N = 101)
Staphylococcus warneri = test: MIC, CLSI broth microdilution, clinical isolates; details: Staphylococcus warneri (N = 50)
S. epidermidis = test: MIC of clinical trial isolates, Studies 373, 433, 434; details: Staphylococcus epidermidis, read-out: MIC90
S. aureus = test: as above; details: Staphylococcus aureus
Viridans streptococci = test: MIC, CLSI broth microdilution, clinical isolates; details: Viridans streptococci (N = 156)
Klebsiella oxytoca = test: MIC, CLSI broth microdilution, clinical isolates; details: Klebsiella oxytoca (N = 50)
[6] = Streptococcus pneumoniae (PISP, N = 2)
[7] = Streptococcus pneumoniae (PRSP, N = 2)
[8] = Streptococcus pneumoniae (PSSP, N = 31)
[9] = Streptococcus pneumoniae (all phenotypes, N = 35)
[10] = Staphylococcus aureus (CNS, N = 16)
[11] = Staphylococcus aureus (CS, N = 14)
[12] = Staphylococcus aureus (all phenotypes, N = 30)
[13] = MRSA, Staphylococcus aureus (MRSA, N = 11)
[14] = MSSA, Staphylococcus aureus (MSSA, N = 19)
[15] = Staphylococcus epidermidis (CNS, N = 6)
[16] = Staphylococcus epidermidis (CS, N = 9)
[17] = Staphylococcus epidermidis (MSSE, N = 6)
[18] = Staphylococcus epidermidis (all phenotypes, N = 15)
[19] = Haemophilus influenzae (all phenotypes, N = 40)
[20] = Haemophilus influenzae (bla negative, N = 24)
[21] = Haemophilus influenzae (bla positive, N = 16)

COc1c(N2CCNC(C)C2)c(F)cc2c(=O)c(C(=O)O)cn(C3CC3)c12 (stereo not shown) [Gatifloxacin]
% S [1]: 40.6%
MIC50 [1]: 2 µg/mL (≈ 5.33 µM)
MIC90 [1]: 8 µg/mL (≈ 21.3 µM)
% S [2]: 98.0%
MIC Range [2]: 0.06 to 2 µg/mL
MIC50 ([2]; read-out: MIC50): 0.12 µg/mL (≈ 0.32 µM)
MIC90 ([2]; read-out: MIC90): 0.25 µg/mL (≈ 0.666 µM)
% S (Streptococcus pneumoniae; [6]): 100.0%
MIC Range (Streptococcus pneumoniae; [6]): 0.25-0.25 μg/mL
% S (Streptococcus pneumoniae; [7]): 100.0%
MIC Range (Streptococcus pneumoniae; [7]): 0.12 to 0.25 µg/mL
% S (Streptococcus pneumoniae; [8]): 96.8%
MIC50 (Streptococcus pneumoniae; [8]): 0.12 µg/mL (≈ 0.32 µM)
MIC90 (Streptococcus pneumoniae; [8]): 0.25 µg/mL (≈ 0.666 µM)
MIC Range (Streptococcus pneumoniae; [8]): 0.015 to 4 µg/mL
% S (Streptococcus pneumoniae; [9]): 97.1%
MIC Range (Streptococcus pneumoniae; [9]): 0.015 to 4 µg/mL
MIC50 (Streptococcus pneumoniae; Streptococcus pneumoniae (all phenotypes, N = 35), read-out: MIC50): 0.12 µg/mL (≈ 0.32 µM)
MIC90 (Streptococcus pneumoniae; Streptococcus pneumoniae (all phenotypes, N = 35), read-out: MIC90): 0.25 µg/mL (≈ 0.666 µM)
% S (Staphylococcus aureus; [10]): 6.3%
% S (Staphylococcus aureus; [11]): 92.9%
MIC Range (Staphylococcus aureus; [11]): 0.03 to 1 µg/mL
% S (Staphylococcus aureus; Staphylococcus aureus (MRSA, N = 11)): 18.2%
% S (Staphylococcus aureus; Staphylococcus aureus (MSSA, N = 19)): 63.2%
% S (Staphylococcus aureus; [12]): 46.7%
MIC50 (Staphylococcus aureus; [13]): 2 µg/mL (≈ 5.33 µM)
MIC90 (Staphylococcus aureus; [13]): > 8 µg/mL
MIC50 (Staphylococcus aureus; [14]): 0.06 µg/mL (≈ 0.16 µM)
MIC90 (Staphylococcus aureus; [14]): 2 µg/mL (≈ 5.33 µM)
MIC50 (Staphylococcus aureus; [10]): 2 µg/mL (≈ 5.33 µM)
MIC90 (Staphylococcus aureus; [10]): > 8 µg/mL
MIC50 (Staphylococcus aureus; [11]): 0.06 µg/mL (≈ 0.16 µM)
MIC90 (Staphylococcus aureus; [11]): 0.25 µg/mL (≈ 0.666 µM)
MIC50 (Staphylococcus aureus; [12]): 1 µg/mL (≈ 2.66 µM)
MIC90 (Staphylococcus aureus; [12]): > 8 µg/mL
% S (Streptococcus pyogenes): 100.0%
MIC Range (Streptococcus pyogenes): 0.06 to 0.5 µg/mL
MIC50 (Streptococcus pyogenes; read-out: MIC50): 0.12 µg/mL (≈ 0.32 µM)
MIC90 (Streptococcus pyogenes; read-out: MIC90): 0.25 µg/mL (≈ 0.666 µM)
% S (Morganella morganii): 74.5%
MIC50 (Morganella morganii): 0.12 µg/mL (≈ 0.32 µM)
MIC90 (Morganella morganii): > 8 µg/mL
MIC50 (Legionella pneumophila; Legionella pneumophila): 0.03 µg/mL (≈ 0.0799 µM)
MIC90 (Legionella pneumophila; Legionella pneumophila): 0.06 µg/mL (≈ 0.16 µM)
MIC Range (Legionella pneumophila; Legionella pneumophila (N = 50)): 0.015 to 0.06 µg/mL
% S [3, 15]: 50.0%
% S [3, 16]: 100.0%
MIC Range [3, 16]: 0.06-0.06 μg/mL
% S ([3]; Staphylococcus epidermidis (MRSE, N = 9)): 44.4%
% S [3, 17]: 83.3%
MIC Range [3, 17]: 0.06 to 1 µg/mL
% S [3, 18]: 60.0%
MIC90 [3, 18]: > 8 µg/mL
MIC50 ([3]; MRSE, Staphylococcus epidermidis (MRSE, N = 9)): 1 µg/mL (≈ 2.66 µM)
MIC50 [3, 15]: 1 µg/mL (≈ 2.66 µM)
MIC50 [3, 16]: 0.06 µg/mL (≈ 0.16 µM)
MIC50 [3, 17]: 0.06 µg/mL (≈ 0.16 µM)
MIC50 [3, 18]: 0.06 µg/mL (≈ 0.16 µM)
% S (Haemophilus influenzae; [19]): 100.0%
MIC Range (Haemophilus influenzae; [19]): ≦0.004-0.015 μg/mL
% S (Haemophilus influenzae; [20]): 100.0%
MIC Range (Haemophilus influenzae; [20]): ≦0.004-0.015 μg/mL
% S (Haemophilus influenzae; [21]): 100.0%
MIC Range (Haemophilus influenzae; [21]): ≦0.004-0.015 μg/mL
MIC50 (Haemophilus influenzae; [19]): 0.008 µg/mL (≈ 0.0213 µM)
MIC90 (Haemophilus influenzae; [19]): 0.008 µg/mL (≈ 0.0213 µM)
MIC50 (Haemophilus influenzae; [20]): 0.008 µg/mL (≈ 0.0213 µM)
MIC90 (Haemophilus influenzae; [20]): 0.008 µg/mL (≈ 0.0213 µM)
MIC50 (Haemophilus influenzae; [21]): 0.008 µg/mL (≈ 0.0213 µM)
MIC90 (Haemophilus influenzae; [21]): 0.008 µg/mL (≈ 0.0213 µM)
% S (Citrobacter koseri): 99.0%
MIC50 (Citrobacter koseri): 0.015 µg/mL (≈ 0.04 µM)
MIC90 (Citrobacter koseri): 0.12 µg/mL (≈ 0.32 µM)
% S (Streptococcus agalactiae): 100.0%
MIC Range (Streptococcus agalactiae): 0.12 to 1 µg/mL
MIC50 (Streptococcus agalactiae; read-out: MIC50): 0.25 µg/mL (≈ 0.666 µM)
MIC90 (Streptococcus agalactiae; read-out: MIC90): 0.25 µg/mL (≈ 0.666 µM)
% S [4]: 100.0%
MIC50 [4]: 0.12 µg/mL (≈ 0.32 µM)
MIC90 [4]: 0.25 µg/mL (≈ 0.666 µM)
MIC Range [4]: 0.03 to 0.25 µg/mL
% S [5]: 73.3%
MIC50 [5]: 0.12 µg/mL (≈ 0.32 µM)
MIC90 [5]: 2 µg/mL (≈ 5.33 µM)
MIC Range [5]: 0.03 to 8 µg/mL
% S (Staphylococcus hominis): 32.0%
MIC50 (Staphylococcus hominis): 1 µg/mL (≈ 2.66 µM)
MIC90 (Staphylococcus hominis): 4 µg/mL (≈ 10.7 µM)
MIC50 (Moraxella catarrhalis): 0.015 µg/mL (≈ 0.04 µM)
MIC90 (Moraxella catarrhalis): 0.015 µg/mL (≈ 0.04 µM)
MIC Range (Moraxella catarrhalis): 0.008 to 0.25 µg/mL
% S (Staphylococcus warneri): 76.0%
MIC50 (Staphylococcus warneri): 0.12 µg/mL (≈ 0.32 µM)
MIC90 (Staphylococcus warneri): 4 µg/mL (≈ 10.7 µM)
MIC90 (S. epidermidis; MRSE, S. epidermidis MRSE-CR, N 24): > 8 µg/mL
MIC90 (S. epidermidis; MRSE, S. epidermidis MRSE-CS, N 27): 0.25 µg/mL
MIC90 (S. epidermidis; S. epidermidis MSSE-CR, N 10): 8 µg/mL
MIC90 (S. epidermidis; S. epidermidis MSSE-CS, N 50): 0.25 µg/mL
MIC90 (S. aureus; MRSA, S. aureus MRSA-CR, N 17, read-out: MIC90): > 8 µg/mL
MIC90 (S. aureus; MRSA, S. aureus MRSA-CS, N 9, read-out: MIC90 (due to limited isolates, highest MIC value is given)): 0.25 µg/mL
MIC90 (S. aureus; MSSA, S. aureus MSSA-CR, N 17, read-out: MIC90): > 8 µg/mL
MIC90 (S. aureus; MSSA, S. aureus MSSA-CS, N 144, read-out: MIC90): 0.25 µg/mL
MIC Range (Viridans streptococci): 0.03 to 8 µg/mL
MIC50 (Viridans streptococci; read-out: MIC50): 0.25 µg/mL (≈ 0.666 µM)
MIC90 (Viridans streptococci; read-out: MIC90): 0.5 µg/mL (≈ 1.33 µM)
% S (Klebsiella oxytoca): 92.0%
MIC50 (Klebsiella oxytoca): 0.03 µg/mL (≈ 0.0799 µM)
MIC90 (Klebsiella oxytoca): 0.5 µg/mL (≈ 1.33 µM)
MIC Range (Klebsiella oxytoca): 0.015 to 8 µg/mL
